# From patent publication US6669951B2, “Compositions and methods for enhancing drug delivery across and into epithelial tissues” (CellGate, Inc., priority 1999, dated 2003)
# Peptide text beside a SMILES is read from it. * marks the point of attachment. FITC = O=C1OC2(c3ccc(O)cc3Oc3cc(O)ccc32)c2ccc(NC(=S)*)cc21; Ahx = NCCCCCC(=O)O
# Key:
# Jurkat cells [1] = experiment: Cellular uptake kinetics assay (Michaelis-Menton); format: cell-based, human; parameters: Vmax: unit not given here; details: for Km / Vmax / rate of entering cells, fold faster than Tat47-59: Jurkat cells; for Km / Vmax: incubation 30, 60, 120, 240 seconds, 3° C.; for rate of entering cells, fold faster than Tat47-59: from Km values
# Experimental: (§1) The accuracy of this method for determining concentration was established by weighing selected samples and dissolving them in a known amount of PBS buffer. The concentrations determined by UV spectroscopy correlated with the amounts weighed out manually. Jurkat cells (human T cell line), murine B cells (CH27), or human PBL cells were grown in 10% fetal calf serum and DMEM and each of these were used for cellular uptake experiments. […] The microtiter plates were centrifuged and the cells were isolated, washed with cold PBS (3×250 μL), incubated with 0.05% trypsin/0.53 mM EDTA at 37° C. for 5 min, washed with cold PBS, and resuspended in PBS containing 0.1% propidium iodide. The cells were analyzed using fluorescent flow cytometry (FACScan, Becton Dickinson) and cells staining with propidium iodide were excluded from the analysis. The data presented is the mean fluorescent signal for the 5000 cells collected.
# Cellular Uptake Kinetics Assay. The assays were performed as previously described except the cells were incubated for 0.5, 1, 2, and 4 min at 4° C. in triplicate in 2% FCS/PBS (50 μl) in microtiter plates (96 well). The reactions were quenched by diluting the samples into 2% FCS/PBS (5 mL). The assays were then worked up and analyzed by fluorescent flow cytometry as previously described.
# The rates of cellular uptake were determined after incubation (3° C.) of the peptides in Jurkat cells for 30, 60, 120, and 240 seconds (Table 1).
# Jurkat cells [2] = experiment: FACS cellular uptake assay; format: cell-based, human; details: for cellular uptake relative to Tat49-57: Jurkat cells, 2% FCS; for additional loss of intracellular fluorescence from the one amino acid truncated analogs: further deletion of one residue
# Experimental: as §1
# Inhibition of Cellular Uptake with Sodium Azide. The assays were performed as previously described with the exception that the cells used were preincubated for 30 min with 0.5% sodium azide in 2% FCS/PBS buffer prior to the addition of fluorescent peptides and the cells were washed with 0.5% sodium azide in PBS buffer. All of the cellular uptake assays were run in parallel in the presence and absence of sodium azide.
# To determine the structural requirements for the cellular uptake of short arginine-rich peptides, a series of fluorescently-labeled truncated analogues of Tat49-57 were synthesized using standard solid-phase chemistry. See, e.g., Atherton, E. et al. SOLID-PHASE PEPTIDE […] (IRL: Oxford, Engl. 1989). A fluorescein moiety was attached via an aminohexanoic acid spacer on the amino termini. The ability of these fluorescently labeled peptides to enter Jurkat cells was then analyzed using fluorescent activated cell sorting (FACS). The peptide constructs tested were Tat49-57 (Fl-ahx-[…]; SEQ ID NO:8): Tat49-56 (Fl-ahx-[…]; SEQ ID NO:9), Tat49-55 (Fl-ahx-RKKRRQR; SEQ ID NO: 10), Tat50-57 (Fl-ahx-[…]; SEQ ID NO: 11), and Tat51-57 (Fl-ahx-KRRQRRR; SEQ ID NO: 12). Differentiation between cell surface binding and internalization was accomplished throughout by running a parallel set of assays in the presence and absence of sodium azide. Because sodium azide inhibits energy-dependent cellular uptake but not cell surface binding, the difference in fluorescence between the two assays provided the amount of fluorescence resulting from internalization.
# [3] = tested on: ear inflammation in Balb/c mice; experiment: Murine contact dermatitis (DNFB), ear inflammation; format: in vivo, mouse
# Experimental: Balb/c (6-7 weeks) mice were painted on the abdomen with 100 μl of 0.7% DNFB in acetone olive oil (95:5). Three days later both ears of the animals were restimulated with 0.5% DNFB in acetone. […] Ear inflammation was measured 24 hours after restimulation using a spring loaded caliper. The percent reduction of inflammation was calculated using the following formula […], where t=thickness of the treated ear, n=the thickness of a normal untreated ear, and u=thickness of an inflamed ear without any treatment. N=20 animals in each group.
# skin of nude mice = experiment: Penetration of biotinylated conjugates into skin of nude mice (streptavidin staining); details: 1 mM-100 μM in PBS, nude mice, thirty, sixty, 120 minutes
# Experimental: Samples (100 μl) were applied as a liquid without excipient, prevented from dispersing by a Vaseline™ barrier, and allowed to penetrate for fifteen minutes. At the end of this period the animal was sacrificed, the relevant sections of skin were excised, embedded in mounting medium (OCT), and frozen. Frozen sections (5 microns) were cut using a cryostat, collected on slides, and stained with fluorescently labeled streptavidin (Vector Laboratories, Burlingame, Calif.). The slides were fixed in acetone at 4° C. for ten minutes, air dried, soaked in PBS for five minutes, blocked with normal goat serum for five minutes, and washed with PBS for five minutes. The section was stained by incubation with fluorescently labeled streptavidin at 30 μg/ml for thirty minutes, washed with PBS, counterstained with propidium iodide (1 μg/ml) for two minutes, and the section was mounted with Vectashield™ mounting media. Slides were analyzed by fluorescent microscopy. Parallel studies were done using streptavidin-horse radish peroxidase rather than fluorescein-streptavidin. The biotinylated peptide was visualized by treatment of the sections with the horseradish peroxidase substrate diaminobenzadine, and visualization with light microscopy.
# Alternatively, sample (100 μl) was applied as a liquid without excipient and prevented from evaporating by wrapping plastic wrap over the sample sealed with Vaseline™. […] At the end of this period animal was sacrificed, the relevant section of skin was excised, embedded in mounting medium (OCT) and frozen. […] Slides were analyzed by fluorescent microscopy.
# At the end of this period animal was sacrificed, the relevant section of skin was excised, embedded in mounting medium (OCT) and frozen. […] Slides were analyzed by fluorescent microscopy
# (§2) At the end of this period animal was sacrificed, the relevant section of skin was excised, embedded in mounting medium (OCT) and frozen. […] Slides were analyzed by fluorescent microscopy.
# as §2
molecule,measurement,setting,value
"CC[C@H](C)[C@H](NC(=O)[C@H](CCCCN)NC(=O)[C@@H](NC(=O)[C@H](CCC(N)=O)NC(=O)[C@H](CCCNC(=N)N)NC(=O)CCCCCNC(=S)Nc1ccc2c(c1)C(=O)OC21c2ccc(O)cc2Oc2cc(O)ccc21)[C@@H](C)CC)C(=O)N[C@@H](Cc1c[nH]c2ccccc12)C(=O)N[C@@H](Cc1ccccc1)C(=O)N[C@@H](CCC(N)=O)C(=O)N[C@@H](CC(N)=O)C(=O)N[C@@H](CCCNC(=N)N)C(=O)N[C@@H](CCCNC(=N)N)C(=O)N[C@@H](CCSC)C(=O)N[C@@H](CCCCN)C(=O)N[C@@H](Cc1c[nH]c2ccccc12)C(=O)N[C@@H](CCCCN)C(=O)N[C@@H](CCCCN)C(N)=O [Antennapedia43-58, reference compound]",Km,Jurkat cells [1],427 µM
same,Vmax,Jurkat cells [1],0.41
same,"rate of entering cells, fold faster than Tat47-59",Jurkat cells [1],approximately 2 fold
N=C(N)NCCC[C@H](NC(=O)[C@H](CCCCN)NC(=O)[C@H](CCCCN)NC(=O)[C@H](CCCNC(=N)N)NC(=O)[C@H](CCCNC(=N)N)NC(=O)[C@H](CCC(N)=O)NC(=O)[C@H](CCCNC(=N)N)NC(=O)[C@H](CCCNC(=N)N)NC(=O)[C@H](CCCNC(=N)N)NC(=O)CCCCCNC(=S)Nc1ccc2c(c1)C(=O)OC21c2ccc(O)cc2Oc2cc(O)ccc21)C(N)=O [Tat57-49],cellular uptake relative to Tat49-57,Jurkat cells [2],more effective at entering Jurkat cells then Tat49-57
"N=C(N)NCCC[C@H](NC(=O)[C@H](CCC(N)=O)NC(=O)[C@H](CCCNC(=N)N)NC(=O)[C@H](CCCNC(=N)N)NC(=O)[C@H](CCCCN)NC(=O)[C@H](CCCCN)NC(=O)[C@H](CCCNC(=N)N)NC(=O)CCCCCNC(=S)Nc1ccc2c(c1)C(=O)OC21c2ccc(O)cc2Oc2cc(O)ccc21)C(N)=O [Tat49-55, Fl-ahx-RKKRRQR] ({FITC-Ahx}-RKKRRQR-NH2)",additional loss of intracellular fluorescence from the one amino acid truncated analogs,Jurkat cells [2],60%
C[C@H](NC(=O)[C@H](CCCNC(=N)N)NC(=O)[C@H](CCCNC(=N)N)NC(=O)[C@H](CCCCN)NC(=O)[C@H](CCCCN)NC(=O)[C@H](CCCNC(=N)N)NC(=O)CCCCCNC(=S)Nc1ccc2c(c1)C(=O)OC21c2ccc(O)cc2Oc2cc(O)ccc21)C(=O)N[C@@H](CCCNC(=N)N)C(=O)N[C@@H](CCCNC(=N)N)C(=O)N[C@@H](CCCNC(=N)N)C(N)=O [A-54] ({FITC-Ahx}-RKKRRARRR-NH2),cellular uptake relative to Tat49-57,Jurkat cells [2],modest decrease in cellular internalization
"CC1(C)O[C@@H]2C[C@H]3[C@@H]4CCC5=CC(=O)C=C[C@]5(C)[C@@]4(F)[C@@H](O)C[C@]3(C)[C@]2(C(=O)CO)O1 [triamcinolone acetonide, reference compound]",reduction in ear inflammation,[3]; 0.1% topical,34.1%±6.3
R7 (SEQ ID NO:3): heptamer that consists of L-arginine residues; SEQ ID NO:3 (RRRRRRR),reduction in ear inflammation,"[3]; 1% topical, 1, 5 and 20 h after restimulation, measured 24 hours",No reduction of inflammation was observed
"N=C(N)NCCC[C@H](NC(=O)[C@H](CCCNC(=N)N)NC(=O)[C@H](CCCNC(=N)N)NC(=O)[C@H](CCCNC(=N)N)NC(=O)[C@H](CCCNC(=N)N)NC(=O)[C@H](CCCNC(=N)N)NC(=O)[C@H](CCCNC(=N)N)NC(=O)[C@H](CCCNC(=N)N)NC(=O)[C@H](CCCNC(=N)N)NC(=O)CCCCCNC(=S)Nc1ccc2c(c1)C(=O)OC21c2ccc(O)cc2Oc2cc(O)ccc21)C(N)=O (single isomer, unassigned) [R9]",Km values fold greater / fold better than Tat49-57,Jurkat cells [1]; Discussion,30 fold
same,Km,Jurkat cells [1],44 µM
same,Vmax,Jurkat cells [1],0.37
same,"rate of entering cells, fold faster than Tat47-59",Jurkat cells [1],~20 fold
"N=C(N)NCCC[C@@H](NC(=O)[C@@H](CCCCN)NC(=O)[C@@H](CCCCN)NC(=O)[C@@H](CCCNC(=N)N)NC(=O)[C@@H](CCCNC(=N)N)NC(=O)[C@@H](CCC(N)=O)NC(=O)[C@@H](CCCNC(=N)N)NC(=O)[C@@H](CCCNC(=N)N)NC(=O)[C@@H](CCCNC(=N)N)NC(=O)CCCCCNC(=S)Nc1ccc2c(c1)C(=O)OC21c2ccc(O)cc2Oc2cc(O)ccc21)C(N)=O [d-Tat57-49, F1-ahx-rrrqrrkkr]",cellular uptake relative to Tat49-57,Jurkat cells [2],more effective at entering Jurkat cells then Tat49-57
"N=C(N)NCCC[C@H](NC(=O)[C@H](CCCNC(=N)N)NC(=O)[C@H](CCCNC(=N)N)NC(=O)[C@H](CCC(N)=O)NC(=O)[C@H](CCCNC(=N)N)NC(=O)[C@H](CCCNC(=N)N)NC(=O)[C@H](CCCCN)NC(=O)[C@H](CCCCN)NC(=O)[C@H](CCCNC(=N)N)NC(=O)CCCCCNC(=S)Nc1ccc2c(c1)C(=O)OC21c2ccc(O)cc2Oc2cc(O)ccc21)C(N)=O [Tat49-57, reference compound]",Km,Jurkat cells [1],770 µM
same,Vmax,Jurkat cells [1],0.38
same,cellular uptake relative to Tat49-57,Jurkat cells [2],between that of R6 and R7
"N=C(N)NCCC[C@H](NC(=O)[C@H](CCCNC(=N)N)NC(=O)[C@H](CCCNC(=N)N)NC(=O)[C@H](CCC(N)=O)NC(=O)[C@H](CCCNC(=N)N)NC(=O)[C@H](CCCNC(=N)N)NC(=O)[C@H](CCCCN)NC(=O)CCCCCNC(=S)Nc1ccc2c(c1)C(=O)OC21c2ccc(O)cc2Oc2cc(O)ccc21)C(N)=O [Tat51-57, Fl-ahx-KRRQRRR] ({FITC-Ahx}-KRRQRRR-NH2)",additional loss of intracellular fluorescence from the one amino acid truncated analogs,Jurkat cells [2],did not further diminish the amount of internalization
"N=C(N)NCCC[C@@H](NC(=O)[C@@H](CCCNC(=N)N)NC(=O)[C@@H](CCCNC(=N)N)NC(=O)[C@@H](CCC(N)=O)NC(=O)[C@@H](CCCNC(=N)N)NC(=O)[C@@H](CCCNC(=N)N)NC(=O)[C@@H](CCCCN)NC(=O)[C@@H](CCCCN)NC(=O)[C@@H](CCCNC(=N)N)NC(=O)CCCCCNC(=S)Nc1ccc2c(c1)C(=O)OC21c2ccc(O)cc2Oc2cc(O)ccc21)C(N)=O [d-Tat49-57, F1-ahx-rkkrrqrrr]",cellular uptake relative to Tat49-57,Jurkat cells [2],more effective at entering Jurkat cells then Tat49-57
CC(=O)O[C@H]1C(=O)[C@@]2(C)[C@H]([C@H](OC(=O)c3ccccc3)[C@]3(O)C[C@H](OC(=O)[C@H](OC(=O)NCCCC[C@H](NC(=O)[C@@H](CCCNC(=N)N)NC(=O)[C@@H](CCCNC(=N)N)NC(=O)[C@@H](CCCNC(=N)N)NC(=O)[C@@H](CCCNC(=N)N)NC(=O)[C@@H](CCCNC(=N)N)NC(=O)[C@@H](CCCNC(=N)N)NC(=O)[C@@H](CCCNC(=N)N)NC(=O)[C@@H](CCCNC(=N)N)NC(=O)[C@@H](CCCNC(=N)N)NC(=O)CCCCCNC(=O)CCCC[C@@H]4SC[C@@H]5NC(=O)N[C@@H]54)C(N)=O)[C@@H](NC(=O)c4ccccc4)c4ccccc4)C(C)=C1C3(C)C)[C@]1(OC(C)=O)CO[C@@H]1C[C@@H]2O [B-aca-r9-K-taxol],penetration of drug conjugates into skin,skin of nude mice,effectively entered into and across the epidermis and into the dermis of the skin of nude mice
